Where two headings read alike, the source gives them in different places.
Experiments:
circulating platelets [1] = conditions: following injection in beagle canines; cited from earlier work
circulating platelets [2] = conditions: following injection into C57BL/6 mice; cited from earlier work
FL5.12/Bcl-2 cells = assay: FL5.12/Bcl-2 cell viability assay under IL-3 withdrawal (CellTitre Glo); type: cell-based, murine; conditions: Mus musculus, IL-3 withdrawn 48 hrs, then 24 hrs with compound
Method in brief: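 Bcl-2-overexpressing murine FL5.12 transfectants underwent IL-3 removal for 48 hrs before a 24 hr compound treatment. Cell viability was quantified with CellTitre Glo.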

Canine platelets = assay: Platelet cell viability assay (platelet-rich plasma, Cell Titer Glo); type: cell-based; conditions: Canis lupus familiaris, 5 h, isolated canine platelets ex vivo, five hours at 37° C.
Method in brief: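 Isolated canine platelets were incubated ex vivo with a range of compound concentrations. After 20 min equilibration at room temperature, viability was measured by Cell Titer Glo luminescence.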

GST-Bcl-XL = GST-Bcl-XL (Homo sapiens, UniProt Q07817); assay: TR-FRET binding assay, GST-Bcl-XL with F-Bak peptide probe; conditions: TR-FRET Binding Affinity, GST-Bcl-XL, F-Bak peptide probe
Chain of GST-Bcl-XL (Q07817 whole entry): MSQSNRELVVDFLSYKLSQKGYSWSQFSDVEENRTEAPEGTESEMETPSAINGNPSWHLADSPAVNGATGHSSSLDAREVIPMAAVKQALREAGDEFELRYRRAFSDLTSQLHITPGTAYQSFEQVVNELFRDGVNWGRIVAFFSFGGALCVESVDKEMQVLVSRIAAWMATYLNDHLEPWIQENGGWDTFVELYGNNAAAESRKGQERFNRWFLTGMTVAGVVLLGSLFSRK
Method in brief: (§1)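 Ki was derived with Wang's equation for competitive binding of two ligands. The read-out was time-resolved fluorescence after a 3 h room-temperature incubation, using a Tb-labelled antibody donor and the F-Bak peptide acceptor (excitation 340/35 nm). Test compounds entered as DMSO serial dilutions starting at 50 μM, which was the 2× concentration.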

GST-Bcl-2 = GST-Bcl-2 (Homo sapiens, UniProt P10415); assay: TR-FRET binding assay, GST-Bcl-2 with F-Bak peptide probe; conditions: TR-FRET Binding Affinity, GST-Bcl-2, F-Bak peptide probe
Chain of GST-Bcl-2 (P10415 whole entry): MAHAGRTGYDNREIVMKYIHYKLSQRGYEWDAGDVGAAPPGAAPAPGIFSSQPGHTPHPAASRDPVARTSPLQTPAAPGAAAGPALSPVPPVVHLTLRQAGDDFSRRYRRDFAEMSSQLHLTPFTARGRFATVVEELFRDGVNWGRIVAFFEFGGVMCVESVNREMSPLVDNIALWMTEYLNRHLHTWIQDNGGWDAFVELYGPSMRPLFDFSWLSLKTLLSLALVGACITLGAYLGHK
Method in brief: as §1

Row | SMILES | effect on circulating platelets (circulating platelets [1]) | effect on circulating platelets (circulating platelets [2]) | EC50 (FL5.12/Bcl-2 cells) [nM] | EC50 (Canine platelets) [nM] | Ki (GST-Bcl-XL) [nM] | Ki (GST-Bcl-2) [nM]
1 | CN(C)CC[C@H](CSc1ccccc1)Nc1ccc(S(=O)(=O)NC(=O)c2ccc(N3CCN(Cc4ccccc4-c4ccc(Cl)cc4)CC3)cc2)cc1[N+](=O)[O-] [ABT-737, 4-(4-((4′-chloro-1,1′-biphenyl-2-yl)methyl)piperazin-1-yl)-N-((4-(((1R)-3-(dimethylamino)-1-((phenylthio)methyl)propyl)amino)-3-nitrophenyl)sulfonyl)benzamide, reference compound] | rapid, concentration dependant decrease in circulating platelets | rapid, concentration dependant decrease in circulating platelets | 25 | 282 |  | 
2 | CN1CCC(Nc2ccc(S(=O)(=O)NC(=O)c3ccc(N4CCN(CC5=C(c6ccc(Cl)cc6)CCCCCC5)CC4)cc3Oc3cccc4[nH]ccc34)cc2[N+](=O)[O-])CC1 [Example 146, 4-(4-{[2-(4-chlorophenyl)cyclooct-1-en-1-yl]methyl}piperazin-1-yl)-2-(1H-indol-4-yloxy)-N-({4-[(1-methylpiperidin-4-yl)amino]-3-nitrophenyl}sulfonyl)benzamide] |  |  | 152 | 22000 | > 660 | 44.2
3 | CN1CCC(Nc2ccc(S(=O)(=O)NC(=O)c3ccc(N4CCN(CC5=C(c6ccc(Cl)cc6)CCCCC5)CC4)cc3Oc3cccc4[nH]ccc34)cc2[N+](=O)[O-])CC1 [Example 147, 4-(4-{[2-(4-chlorophenyl)cyclohept-1-en-1-yl]methyl}piperazin-1-yl)-2-(1H-indol-4-yloxy)-N-({4-[(1-methylpiperidin-4-yl)amino]-3-nitrophenyl}sulfonyl)benzamide] |  |  | 9 | 17600 | > 660 | 0.514
4 | CN1CCC(Nc2ccc(S(=O)(=O)NC(=O)c3ccc(N4CCN(CC5=C(c6ccc(Cl)cc6)CCCC5)CC4)cc3Oc3cccc4[nH]ccc34)cc2[N+](=O)[O-])CC1 [Example 149, 4-(4-{[2-(4-chlorophenyl)cyclohex-1-en-1-yl]methyl}piperazin-1-yl)-2-(1H-indol-4-yloxy)-N-({4-[(1-methylpiperidin-4-yl)amino]-3-nitrophenyl}sulfonyl)benzamide] |  |  | 13 | 16700 | > 660 | 0.265
5 | CN1CCC(Nc2ccc(S(=O)(=O)NC(=O)c3ccc(N4CCN(CC5=C(c6ccc(Cl)cc6)CC(C)(C)OC5)CC4)cc3Oc3ccc4[nH]ccc4c3)cc2[N+](=O)[O-])CC1 [Example 150, 4-(4-{[4-(4-chlorophenyl)-6,6-dimethyl-5,6-dihydro-2H-pyran-3-yl]methyl}piperazin-1-yl)-2-(1H-indol-5-yloxy)-N-({4-[(1-methylpiperidin-4-yl)amino]-3-nitrophenyl}sulfonyl)benzamide] |  |  | 6 | 2900 | 9.34 | 0.014
6 | CN1CCC(Nc2ccc(S(=O)(=O)NC(=O)c3ccc(N4CCN(CC5=C(c6ccc(Cl)cc6)CCCCC5)CC4)cc3Oc3ccc4[nH]ccc4c3)cc2[N+](=O)[O-])CC1 [Example 151, 4-(4-{[2-(4-chlorophenyl)cyclohept-1-en-1-yl]methyl}piperazin-1-yl)-2-(1H-indol-5-yloxy)-N-({4-[(1-methylpiperidin-4-yl)amino]-3-nitrophenyl}sulfonyl)benzamide] |  |  | 49 | 31400 | > 660 | 0.162
7 | CN1CCC(Nc2ccc(S(=O)(=O)NC(=O)c3ccc(N4CCN(CC5=C(c6ccc(Cl)cc6)CC(C)(C)CC5)CC4)cc3Oc3ccccc3)cc2[N+](=O)[O-])CC1 [Example 152, 4-(4-{[2-(4-chlorophenyl)-4,4-dimethylcyclohex-1-en-1-yl]methyl}piperazin-1-yl)-N-({4-[(1-methylpiperidin-4-yl)amino]-3-nitrophenyl}sulfonyl)-2-phenoxybenzamide] |  |  | 9 | 2660 | 0.412 | 0.026
8 | CN(C)CCCNc1ccc(S(=O)(=O)NC(=O)c2ccc(N3CCN(Cc4ccccc4-c4ccc(Cl)cc4)CC3)cc2Oc2ccccc2)cc1[N+](=O)[O-] [Example 154, 4-{4-[(4′-chloro-1,1′-biphenyl-2-yl)methyl]piperazin-1-yl}-N-[(4-{[3-(dimethylamino)propyl]amino}-3-nitrophenyl)sulfonyl]-2-phenoxybenzamide] |  |  | 85 | 29000 | 5.38 | 0.133
9 | O=C(NS(=O)(=O)c1ccc(NCCCN2CCOCC2)c([N+](=O)[O-])c1)c1ccc(N2CCN(Cc3ccccc3-c3ccc(Cl)cc3)CC2)cc1Oc1ccccc1 [Example 155, 4-{4-[(4′-chloro-1,1′-biphenyl-2-yl)methyl]piperazin-1-yl}-N-({4-[(3-morpholin-4-ylpropyl)amino]-3-nitrophenyl}sulfonyl)-2-phenoxybenzamide] |  |  | 421 | > 50000 | 37.7 | 0.484
10 | CN(C)CCCNc1ccc(S(=O)(=O)NC(=O)c2ccc(N3CCN(Cc4ccccc4-c4ccc(Cl)cc4)CC3)cc2Oc2ccc3ccccc3c2)cc1[N+](=O)[O-] [Example 166, 4-{4-[(4′-chloro-1,1′-biphenyl-2-yl)methyl]piperazin-1-yl}-N-[(4-{[3-(dimethylamino)propyl]amino}-3-nitrophenyl)sulfonyl]-2-(2-naphthyloxy)benzamide] |  |  | 153 | > 50000 | 3.27 | 0.459
11 | CN(C)CCCNc1ccc(S(=O)(=O)NC(=O)c2ccc(N3CCN(CC4=C(c5ccc(Cl)cc5)CC(C)(C)CC4)CC3)cc2Oc2ccc3[nH]ccc3c2)cc1S(=O)(=O)C(F)(F)F [Example 170, 4-(4-{[2-(4-chlorophenyl)-4,4-dimethylcyclohex-1-en-1-yl]methyl}piperazin-1-yl)-N-({4-{[3-(dimethylamino)propyl]amino}-3-[(trifluoromethyl)sulfonyl]phenyl}sulfonyl)-2-(1H-indol-5-yloxy)benzamide] |  |  | 15 | 7350 | 3.8 | 0.126
12 | CN(C)CCCNc1ccc(S(=O)(=O)NC(=O)c2ccc(N3CCN(CC4=C(c5ccc(Cl)cc5)CC(C)(C)CC4)CC3)cc2Oc2ccc3[nH]ccc3c2)cc1C(F)(F)F [Example 171, 4-(4-{[2-(4-chlorophenyl)-4,4-dimethylcyclohex-1-en-1-yl]methyl}piperazin-1-yl)-N-{[4-{[3-(dimethylamino)propyl]amino}-3-(trifluoromethyl)phenyl]sulfonyl}-2-(1H-indol-5-yloxy)benzamide] |  |  | 276 | > 50000 | 52.1 | 2.94
13 | CN(C)CCCNc1ccc(S(=O)(=O)NC(=O)c2ccc(N3CCN(CC4=C(c5ccc(Cl)cc5)CC(C)(C)CC4)CC3)cc2Oc2ccc3[nH]ccc3c2)cc1C#N [Example 172, 4-(4-{[2-(4-chlorophenyl)-4,4-dimethylcyclohex-1-en-1-yl]methyl}piperazin-1-yl)-N-[(3-cyano-4-{[3-(dimethylamino)propyl]amino}phenyl)sulfonyl]-2-(1H-indol-5-yloxy)benzamide] |  |  | 194 | > 50000 | 65.7 | 2.05
14 | CC1(C)CCC(CN2CCN(c3ccc(C(=O)NS(=O)(=O)c4ccc(NC5CCN(C6CCOCC6)CC5)c([N+](=O)[O-])c4)c(Oc4ccc5[nH]ccc5c4)c3)CC2)=C(c2ccc(Cl)cc2)C1 [Example 173, 4-(4-{[2-(4-chlorophenyl)-4,4-dimethylcyclohex-1-en-1-yl]methyl}piperazin-1-yl)-2-(1H-indol-5-yloxy)-N-({3-nitro-4-[(1-tetrahydro-2H-pyran-4-ylpiperidin-4-yl)amino]phenyl}sulfonyl)benzamide] |  |  | 11 | > 50000 | 22.1 | 0.108
15 | CN1CCN(Nc2ccc(S(=O)(=O)NC(=O)c3ccc(N4CCN(CC5=C(c6ccc(Cl)cc6)CC(C)(C)CC5)CC4)cc3Oc3ccc4[nH]ccc4c3)cc2[N+](=O)[O-])CC1 [Example 174, 4-(4-{[2-(4-chlorophenyl)-4,4-dimethylcyclohex-1-en-1-yl]methyl}piperazin-1-yl)-2-(1H-indol-5-yloxy)-N-({4-[(4-methylpiperazin-1-yl)amino]-3-nitrophenyl}sulfonyl)benzamide] |  |  | 11 | 19500 | 62.1 | 0.105

Reference: patent publication US9073855B2, “BCL-2 selective apoptosis-inducing agents for the treatment of cancer and immune diseases” (AbbVie Inc., priority 2008, dated 2015)
